Data: US20230399342A1 (Incyte Corporation, priority 2022, published 2023)

How the values were obtained:
DGKα = DGKα (Homo sapiens (Human), UniProt P23743); experiment: In vitro DGKα inhibition assay (ADP-Glo); assay type: biochemical; conditions: His-tagged human recombinant enzyme, 0.1 nM DGKα, 50 μM ATP, 20 μM DLG, 90 minute incubation
Method in brief: (§1)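 His-tagged human DGKα (0.1 nM, 50 μM ATP) or DGKζ (0.4 nM, 30 μM ATP), each with 20 μM DLG, in Tris pH 7.5 buffer with CHAPS, Mg2+, Ca2+.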

DGKζ = DGKζ (Homo sapiens (Human), UniProt Q13574); experiment: In vitro DGKζ inhibition assay (ADP-Glo); assay type: biochemical; conditions: His-tagged human recombinant enzyme, 0.4 nM DGK, 30 μM ATP, 20 μM DLG, 90 minute incubation
DGKζ, sequence (Q13574 whole entry): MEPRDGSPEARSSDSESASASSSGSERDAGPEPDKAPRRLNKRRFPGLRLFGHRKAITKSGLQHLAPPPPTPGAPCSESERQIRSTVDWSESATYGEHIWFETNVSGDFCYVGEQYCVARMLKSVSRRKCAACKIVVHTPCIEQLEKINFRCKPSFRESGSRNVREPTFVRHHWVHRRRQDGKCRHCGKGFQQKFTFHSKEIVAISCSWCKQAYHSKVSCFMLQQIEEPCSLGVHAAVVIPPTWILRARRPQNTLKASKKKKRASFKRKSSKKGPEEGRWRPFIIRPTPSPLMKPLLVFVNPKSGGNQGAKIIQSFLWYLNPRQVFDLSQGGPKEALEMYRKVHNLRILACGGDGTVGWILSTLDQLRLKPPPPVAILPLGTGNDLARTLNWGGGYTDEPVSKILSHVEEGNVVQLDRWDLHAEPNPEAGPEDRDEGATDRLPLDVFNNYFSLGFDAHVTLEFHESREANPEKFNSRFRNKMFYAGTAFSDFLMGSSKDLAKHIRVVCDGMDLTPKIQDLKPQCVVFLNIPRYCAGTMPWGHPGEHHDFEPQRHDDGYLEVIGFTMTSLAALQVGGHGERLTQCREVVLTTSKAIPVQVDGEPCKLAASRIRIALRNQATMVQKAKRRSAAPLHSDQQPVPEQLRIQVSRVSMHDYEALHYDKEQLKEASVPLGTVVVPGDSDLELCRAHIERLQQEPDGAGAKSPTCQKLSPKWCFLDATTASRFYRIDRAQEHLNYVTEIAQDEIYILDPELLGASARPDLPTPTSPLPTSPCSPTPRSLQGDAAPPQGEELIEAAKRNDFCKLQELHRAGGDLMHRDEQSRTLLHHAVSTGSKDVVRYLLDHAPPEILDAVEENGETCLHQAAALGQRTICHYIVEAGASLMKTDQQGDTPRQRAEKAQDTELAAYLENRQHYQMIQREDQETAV
Method in brief: as §1

DGKα, sequence (P23743 whole entry): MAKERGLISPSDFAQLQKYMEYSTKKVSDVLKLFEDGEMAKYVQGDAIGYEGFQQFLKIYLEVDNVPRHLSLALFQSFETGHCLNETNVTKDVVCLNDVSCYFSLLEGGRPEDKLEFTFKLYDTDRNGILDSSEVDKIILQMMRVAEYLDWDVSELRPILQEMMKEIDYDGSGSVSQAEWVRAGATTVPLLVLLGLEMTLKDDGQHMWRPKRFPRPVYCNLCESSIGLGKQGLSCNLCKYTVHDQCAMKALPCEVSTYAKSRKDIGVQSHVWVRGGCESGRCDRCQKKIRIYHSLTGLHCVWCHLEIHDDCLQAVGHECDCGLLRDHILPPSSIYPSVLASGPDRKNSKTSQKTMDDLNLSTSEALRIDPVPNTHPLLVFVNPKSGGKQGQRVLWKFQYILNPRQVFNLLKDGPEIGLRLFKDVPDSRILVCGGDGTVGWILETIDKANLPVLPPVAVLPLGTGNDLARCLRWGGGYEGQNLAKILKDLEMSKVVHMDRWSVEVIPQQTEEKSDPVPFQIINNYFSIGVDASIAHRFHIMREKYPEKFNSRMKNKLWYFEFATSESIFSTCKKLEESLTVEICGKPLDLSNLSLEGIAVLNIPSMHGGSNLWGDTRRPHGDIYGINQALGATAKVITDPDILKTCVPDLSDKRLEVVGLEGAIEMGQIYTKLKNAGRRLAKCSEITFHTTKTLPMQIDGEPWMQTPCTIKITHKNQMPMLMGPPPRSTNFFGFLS

SMILES	IC50 (DGKα) [nM]	IC50 (DGKζ) [nM]
CC[C@@H]1CN(c2nc3nncn3c3c2ncn3CCN(C)C)[C@@H](C)CN1C(c1ccc(Cl)cc1)C1CC(F)(F)C1 (stereo partly drawn) [Example 66, 2-(4-((2S,5R)-4-((4-Chlorophenyl)(3,3-difluorocyclobutyl)methyl)-5-ethyl-2-methylpiperazin-1-yl)-1H-[1,2,4]triazolo[3,4-b]purin-1-yl)-N,N-dimethylethan-1-amine]	≤ 20	≤ 20
Cc1nc2c(N3C[C@@H](C)N([C@H](c4ccc(C(F)(F)F)cc4)C(C)C)C[C@@H]3C)nc3nncn3c2n1C[C@@H]1CCCO1 [Example 67, 4-((2S,5R)-2,5-Dimethyl-4-((S)-2-methyl-1-(4-(trifluoromethyl)phenyl)propyl)piperazin-1-yl)-2-methyl-1-(((S)-tetrahydrofuran-2-yl)methyl)-1H-[1,2,4]triazolo[3,4-b]purine]	≤ 20	≤ 20
Cc1nc2c(N3C[C@@H](C)N([C@@H](c4ccc(C(F)(F)F)cc4)C(C)C)C[C@@H]3C)nc3nncn3c2n1C[C@@H]1CCCO1 [Example 68, 4-((2S,5R)-2,5-dimethyl-4-((R)-2-methyl-1-(4-(trifluoromethyl)phenyl)propyl)piperazin-1-yl)-2-methyl-1-(((S)-tetrahydrofuran-2-yl)methyl)-1H-[1,2,4]triazolo[3,4-b]purine]	≤ 20	≤ 20
Cc1nc2c(N3C[C@@H](C)N([C@H](c4cccc(C(F)(F)F)c4)C(C)C)C[C@@H]3C)nc3nncn3c2n1C[C@@H]1CCCO1 [Example 69, 4-((2S,5R)-2,5-Dimethyl-4-((S)-2-methyl-1-(3-(trifluoromethyl)phenyl)propyl)piperazin-1-yl)-2-methyl-1-(((S)-tetrahydrofuran-2-yl)methyl)-1H-[1,2,4]triazolo[3,4-b]purine]	≤ 20	≤ 20
Cc1nc2c(N3C[C@@H](C)N([C@@H](c4cccc(C(F)(F)F)c4)C(C)C)C[C@@H]3C)nc3nncn3c2n1C[C@@H]1CCCO1 [Example 70, 4-((2S,5R)-2,5-dimethyl-4-((R)-2-methyl-1-(3-(trifluoromethyl)phenyl)propyl)piperazin-1-yl)-2-methyl-1-(((S)-tetrahydrofuran-2-yl)methyl)-1H-[1,2,4]triazolo[3,4-b]purine]	≤ 20	≤ 20
Cc1nc2c(N3C[C@@H](C)N([C@H](c4ccc(C(F)(F)F)cc4F)C(C)C)C[C@@H]3C)nc3nncn3c2n1C[C@@H]1CCCO1 [Example 71, 4-((2S,5R)-4-((S)-1-(2-Fluoro-4-(trifluoromethyl)phenyl)-2-methylpropyl)-2,5-dimethylpiperazin-1-yl)-2-methyl-1-(((S)-tetrahydrofuran-2-yl)methyl)-1H-[1,2,4]triazolo[3,4-b]purine]	≤ 20	≤ 20
Cc1nc2c(N3C[C@@H](C)N([C@@H](c4ccc(C(F)(F)F)cc4F)C(C)C)C[C@@H]3C)nc3nncn3c2n1C[C@@H]1CCCO1 [Example 72, 4-((2S,5R)-4-((R)-1-(2-fluoro-4-(trifluoromethyl)phenyl)-2-methylpropyl)-2,5-dimethylpiperazin-1-yl)-2-methyl-1-(((S)-tetrahydrofuran-2-yl)methyl)-1H-[1,2,4]triazolo[3,4-b]purine]	≤ 20	≤ 20
Cc1nc2c(N3C[C@@H](C)N([C@H](c4ccc(C(F)F)cc4)C(C)C)C[C@@H]3C)nc3nncn3c2n1C[C@@H]1CCCO1 [Example 73, 4-((2S,5R)-4-((S)-1-(4-(Difluoromethyl)phenyl)-2-methylpropyl)-2,5-dimethylpiperazin-1-yl)-2-methyl-1-(((S)-tetrahydrofuran-2-yl)methyl)-1H-[1,2,4]triazolo[3,4-b]purine]	≤ 20	≤ 20
Cc1nc2c(N3C[C@@H](C)N([C@@H](c4ccc(C(F)F)cc4)C(C)C)C[C@@H]3C)nc3nncn3c2n1C[C@@H]1CCCO1 [Example 74, 4-((2S,5R)-4-((R)-1-(4-(difluoromethyl)phenyl)-2-methylpropyl)-2,5-dimethylpiperazin-1-yl)-2-methyl-1-(((S)-tetrahydrofuran-2-yl)methyl)-1H-[1,2,4]triazolo[3,4-b]purine]	≤ 20	≤ 20
Cc1nc2c(N3C[C@@H](C)N([C@H](c4ccc(OC(F)F)cc4F)C(C)C)C[C@@H]3C)nc3nncn3c2n1C[C@@H]1CCCO1 [Example 75, 4-((2S,5R)-4-((S)-1-(4-(Difluoromethoxy)-2-fluorophenyl)-2-methylpropyl)-2,5-dimethylpiperazin-1-yl)-2-methyl-1-(((S)-tetrahydrofuran-2-yl)methyl)-1H-[1,2,4]triazolo[3,4-b]purine]	≤ 20	≤ 20
Cc1nc2c(N3C[C@@H](C)N([C@@H](c4ccc(OC(F)F)cc4F)C(C)C)C[C@@H]3C)nc3nncn3c2n1C[C@@H]1CCCO1 [Example 76, 4-((2S,5R)-4-((R)-1-(4-(difluoromethoxy)-2-fluorophenyl)-2-methylpropyl)-2,5-dimethylpiperazin-1-yl)-2-methyl-1-(((S)-tetrahydrofuran-2-yl)methyl)-1H-[1,2,4]triazolo[3,4-b]purine]	≤ 20	≤ 20
COc1ccc([C@H](C(C)C)N2C[C@H](C)N(c3nc4nncn4c4c3nc(C)n4C[C@@H]3CCCO3)C[C@H]2C)cc1 [Example 77, 4-((2S,5R)-4-((S)-1-(4-Methoxyphenyl)-2-methylpropyl)-2,5-dimethylpiperazin-1-yl)-2-methyl-1-(((S)-tetrahydrofuran-2-yl)methyl)-1H-[1,2,4]triazolo[3,4-b]purine]	≤ 20	≤ 20
COc1ccc([C@@H](C(C)C)N2C[C@H](C)N(c3nc4nncn4c4c3nc(C)n4C[C@@H]3CCCO3)C[C@H]2C)cc1 [Example 78, 4-((2S,5R)-4-((R)-1-(4-methoxyphenyl)-2-methylpropyl)-2,5-dimethylpiperazin-1-yl)-2-methyl-1-(((S)-tetrahydrofuran-2-yl)methyl)-1H-[1,2,4]triazolo[3,4-b]purine]	≤ 20	≤ 20
Cc1nc2c(N3C[C@@H](C)N([C@H](c4ccc(OC(F)F)cc4)C(C)C)C[C@@H]3C)nc3nncn3c2n1C[C@@H]1CCCO1 [Example 79, 4-((2S,5R)-4-((S)-1-(4-(Difluoromethoxy)phenyl)-2-methylpropyl)-2,5-dimethylpiperazin-1-yl)-2-methyl-1-(((S)-tetrahydrofuran-2-yl)methyl)-1H-[1,2,4]triazolo[3,4-b]purine]	≤ 20	≤ 20
Cc1nc2c(N3C[C@@H](C)N([C@@H](c4ccc(OC(F)F)cc4)C(C)C)C[C@@H]3C)nc3nncn3c2n1C[C@@H]1CCCO1 [Example 80, 4-((2S,5R)-4-((R)-1-(4-(difluoromethoxy)phenyl)-2-methylpropyl)-2,5-dimethylpiperazin-1-yl)-2-methyl-1-(((S)-tetrahydrofuran-2-yl)methyl)-1H-[1,2,4]triazolo[3,4-b]purine]	≤ 20	20 to 200
Cc1nc2c(N3C[C@@H](C)N(C(c4ccc(F)c(C(F)F)c4)C(C)C)C[C@@H]3C)nc3nncn3c2n1C[C@@H]1CCCO1 (stereo partly drawn) [Example 82, 4-((2S,5R)-4-(1-(3-(Difluoromethyl)-4-fluorophenyl)-2-methylpropyl)-2,5-dimethylpiperazin-1-yl)-2-methyl-1-(((S)-tetrahydrofuran-2-yl)methyl)-1H-[1,2,4]triazolo[3,4-b]purine]	≤ 20	≤ 20
Cc1nc2c(N3C[C@@H](C)N(C(c4ccc(C(F)(F)F)c(F)c4)C(C)C)C[C@@H]3C)nc3nncn3c2n1C[C@@H]1CCCO1 (stereo partly drawn) [Example 83, 4-((2S,5R)-4-(1-(3-Fluoro-4-(trifluoromethyl)phenyl)-2-methylpropyl)-2,5-dimethylpiperazin-1-yl)-2-methyl-1-(((S)-tetrahydrofuran-2-yl)methyl)-1H-[1,2,4]triazolo[3,4-b]purine]	≤ 20	≤ 20
Cc1nc2c(N3C[C@@H](C)N(C(c4ccc(F)c(C(F)(F)F)c4)C(C)C)C[C@@H]3C)nc3nncn3c2n1C[C@@H]1CCCO1 (stereo partly drawn) [Example 84, 4-((2S,5R)-4-(1-(4-Fluoro-3-(trifluoromethyl)phenyl)-2-methylpropyl)-2,5-dimethylpiperazin-1-yl)-2-methyl-1-(((S)-tetrahydrofuran-2-yl)methyl)-1H-[1,2,4]triazolo[3,4-b]purine]	≤ 20	≤ 20
Cc1nc2c(N3C[C@@H](C)N(C(c4ccc(C(F)(F)F)c(Cl)c4)C(C)C)C[C@@H]3C)nc3nncn3c2n1C[C@@H]1CCCO1 (stereo partly drawn) [Example 85, 4-((2S,5R)-4-(1-(3-Chloro-4-(trifluoromethyl)phenyl)-2-methylpropyl)-2,5-dimethylpiperazin-1-yl)-2-methyl-1-(((S)-tetrahydrofuran-2-yl)methyl)-1H-[1,2,4]triazolo[3,4-b]purine]	≤ 20	≤ 20
Cc1nc2c(N3C[C@@H](C)N([C@H](c4ccc(F)c(Cl)c4)C(C)C)C[C@@H]3C)nc3nncn3c2n1C[C@@H]1CCCO1 [Example 86, 4-((2S,5R)-4-((S)-1-(3-Chloro-4-fluorophenyl)-2-methylpropyl)-2,5-dimethylpiperazin-1-yl)-2-methyl-1-(((S)-tetrahydrofuran-2-yl)methyl)-1H-[1,2,4]triazolo[3,4-b]purine]	≤ 20	≤ 20
Cc1nc2c(N3C[C@@H](C)N([C@H](c4ccc(Cl)cc4)C(C)C)C[C@@H]3C)nc3nncn3c2n1C[C@@H]1CCCO1 [Example 88, 4-((2S,5R)-4-((S)-1-(4-Chlorophenyl)-2-methylpropyl)-2,5-dimethylpiperazin-1-yl)-2-methyl-1-(((S)-tetrahydrofuran-2-yl)methyl)-1H-[1,2,4]triazolo[3,4-b]purine]	≤ 20	≤ 20
